Data from paper PMC7248570 (Frontiers in Microbiology, 2020).

What was measured:
CgmycLAO = format: biochemical, Infundibulicybe geotropa
CgLAO = format: biochemical, Infundibulicybe geotropa

With `CC(C)C[C@H](N)C(=O)O` [L-Leu] the Km (CgmycLAO) was 1520 ± 60 µM and the Km (CgLAO) was 550 ± 60 µM.
